# Test results: the OligoGym collection
# “And” between values parts separate entries of the source, which are not always exact repeats. Equal values may be shown once. After the bases stand the sugars from the 5' end (letter, count) and the backbone: PS all phosphorothioate, else s phosphorothioate and o phosphodiester by linkage. Methylation of C is not given here. e = 2'-O-(2-methoxyethyl) (MOE); k = constrained ethyl (cEt); d = 2'-deoxy (DNA); m = 2'-O-methyl
# Target: HSD17B13
# Details: ASO, HepaRG
sequence,measurement,setting,value
"GTCCAAAAGTGTCCTC (sugars k3 d10 k3, PS)",target mRNA inhibition,1 µM,35%
"TATTATGTGATTGAGT (sugars k3 d10 k3, PS)",target mRNA inhibition,0.02 µM,60% and 50%
same,target mRNA inhibition,0.078 µM,69%
same,target mRNA inhibition,0.313 µM,68%
same,target mRNA inhibition,1 µM,86%
same,target mRNA inhibition,1.25 µM,76%
"ACACTAATATTGAGGC (sugars kkdddddddddkekek, PS)",target mRNA inhibition,1 µM,55%
"TTATGTGATTGAGTTC (sugars k3 d9 k3 e1, PS)",target mRNA inhibition,1 µM,30%
"GCTTTTGTCCACCTTT (sugars k3 d10 k3, PS)",target mRNA inhibition,0.02 µM,28%
same,target mRNA inhibition,0.078 µM,44%
same,target mRNA inhibition,0.313 µM,61%
same,target mRNA inhibition,1 µM,68%
same,target mRNA inhibition,1.25 µM,82%
same,target mRNA inhibition,5 µM,97%
"AAGCAGAATTGTGAAC (sugars k3 d10 k3, PS)",target mRNA inhibition,1 µM,18%
"CCCCGAATTATTTCTT (sugars k3 d10 k3, PS)",target mRNA inhibition,1 µM,35%
"GCAAGCCAACAGAGAG (sugars k3 d1 m1 d8 k3, PS)",target mRNA inhibition,1 µM,26%
"GCAGTAAAGTGCTAAG (sugars k3 d10 k3, PS)",target mRNA inhibition,0.02 µM,44%
same,target mRNA inhibition,0.078 µM,37%
same,target mRNA inhibition,0.313 µM,62%
same,target mRNA inhibition,1 µM,83%
same,target mRNA inhibition,1.25 µM,78%
same,target mRNA inhibition,5 µM,91%
"ACCCGCCCTTAAGTCA (sugars k3 d10 k3, PS)",target mRNA inhibition,1 µM,48%
"TATGACAACTGGAGGT (sugars k3 d10 k3, PS)",target mRNA inhibition,1 µM,14%
"TTGTTAGAGTGCTTAG (sugars k3 d10 k3, PS)",target mRNA inhibition,1 µM,76%
"TCCCACAAAACTAACC (sugars k3 d10 k3, PS)",target mRNA inhibition,1 µM,24%
"GTTTTATAACTGAGCT (sugars k3 d10 k3, PS)",target mRNA inhibition,0.02 µM,16%
same,target mRNA inhibition,0.078 µM,29%
same,target mRNA inhibition,0.313 µM,53%
same,target mRNA inhibition,1 µM,84%
same,target mRNA inhibition,1.25 µM,84%
same,target mRNA inhibition,5 µM,85%
"GTTTTGGGCTAATGAA (sugars kkdddddddddkekek, PS)",target mRNA inhibition,1 µM,42%
"TGCTAAAAGCTCACCA (sugars k3 d10 k3, PS)",target mRNA inhibition,1 µM,49%
"TTCTATTGTATGAGGT (sugars k3 d10 k3, PS)",target mRNA inhibition,1 µM,0%
"CTTACATGATTAAGCA (sugars k3 d10 k3, PS)",target mRNA inhibition,1 µM,44%
"AGATGTACACTGACAA (sugars k3 d10 k3, PS)",target mRNA inhibition,1 µM,66%
"TAACTGAGTTATTCTC (sugars k3 d10 k3, PS)",target mRNA inhibition,1 µM,41%
"CAAGGAGTACTTCACA (sugars k3 d10 k3, PS)",target mRNA inhibition,1 µM,66%
"GTGTAAATAAGTTCTC (sugars k3 d10 k3, PS)",target mRNA inhibition,1 µM,61%
"GATGTGGCCATGATTT (sugars k3 d10 k3, PS)",target mRNA inhibition,1 µM,9%
"CTCAAGGAGTACTTCA (sugars k3 d10 k3, PS)",target mRNA inhibition,0.02 µM,2%
same,target mRNA inhibition,0.078 µM,2%
same,target mRNA inhibition,0.313 µM,30%
same,target mRNA inhibition,1 µM,82%
same,target mRNA inhibition,1.25 µM,78%
same,target mRNA inhibition,5 µM,95%
"CCCTTAGGAAAGCTCA (sugars k3 d10 k3, PS)",target mRNA inhibition,1 µM,37%
"GATTGGAATGCTACTT (sugars k3 d1 m1 d8 k3, PS)",target mRNA inhibition,1 µM,48%
"TACCTCTAAGTTAGCC (sugars k3 d9 k3 e1, PS)",target mRNA inhibition,1 µM,30%
"CTCTTCATCCTTGGTG (sugars k3 d10 k3, PS)",target mRNA inhibition,1 µM,25%
"AACTAACCTGACACAT (sugars k3 d10 k3, PS)",target mRNA inhibition,1 µM,20%
"ATCTACATGGATCCAA (sugars k3 d10 k3, PS)",target mRNA inhibition,1 µM,12%
"AATCATGGTGTGGAGG (sugars k3 d10 k3, PS)",target mRNA inhibition,1 µM,11%
"CTTCCAAGCATTCCAT (sugars k3 d10 k3, PS)",target mRNA inhibition,1 µM,57%
"GCCTAAAATTGTCTAA (sugars k3 d10 k3, PS)",target mRNA inhibition,1 µM,32%
"CTCCTGGTACATGCCA (sugars k3 d10 k3, PS)",target mRNA inhibition,1 µM,47%
"TGTCAGACCTCTGTGA (sugars k3 d10 k3, PS)",target mRNA inhibition,1 µM,0%
"ATGAGATTACCCCTGG (sugars k3 d10 k3, PS)",target mRNA inhibition,1 µM,62%
"GACATAGACATGTGTT (sugars k3 d10 k3, PS)",target mRNA inhibition,1 µM,26%
"CCTGTGTAAATAAGTT (sugars k3 d10 k3, PS)",target mRNA inhibition,1 µM,18%
"GGCAAGACAGACTGTT (sugars k3 d10 k3, PS)",target mRNA inhibition,1 µM,75%
"AAATATGTCCAGGTTG (sugars kkdddddddddkekek, PS)",target mRNA inhibition,1 µM,61%
"GAAGTTAGTATAGTTA (sugars k3 d10 k3, PS)",target mRNA inhibition,1 µM,59%
"GACATAACTACTTCAG (sugars k3 d10 k3, PS)",target mRNA inhibition,1 µM,66%
"TCTTGACAATGGTTGC (sugars k3 d9 k3 e1, PS)",target mRNA inhibition,0.02 µM,0%
same,target mRNA inhibition,0.078 µM,0%
same,target mRNA inhibition,0.313 µM,11%
same,target mRNA inhibition,1 µM,77%
same,target mRNA inhibition,1.25 µM,46%
same,target mRNA inhibition,5 µM,79%
"CTTTGCAGCATTGATT (sugars kkdddddddddkekek, PS)",target mRNA inhibition,1 µM,49%
"ATCCTGTAAACACTTC (sugars k3 d10 k3, PS)",target mRNA inhibition,0.02 µM,11%
same,target mRNA inhibition,0.078 µM,13%
same,target mRNA inhibition,0.313 µM,27%
same,target mRNA inhibition,1 µM,79%
same,target mRNA inhibition,1.25 µM,66%
same,target mRNA inhibition,5 µM,87%
"ATAAAAATCGCTGCTT (sugars k3 d10 k3, PS)",target mRNA inhibition,1 µM,11%
"AGGCUGTAAGAGTCAG (sugars k3 d1 m1 d8 k3, PS)",target mRNA inhibition,1 µM,52%
"TTACGACTTCATCTGT (sugars k3 d10 k3, PS)",target mRNA inhibition,1 µM,36%
"TGATAATTTGGTGTCA (sugars k3 d10 k3, PS)",target mRNA inhibition,1 µM,3%
"AATAGCCAGTACAGTT (sugars kkdddddddddkekek, PS)",target mRNA inhibition,1 µM,36%
"AATATATACCTGTTGC (sugars k3 d10 k3, PS)",target mRNA inhibition,1 µM,38%
"AGTGCTTTTGTGATCC (sugars k3 d10 k3, PS)",target mRNA inhibition,1 µM,25%
"TCTTGACAATGGTTGA (sugars k3 d10 k3, PS)",target mRNA inhibition,1 µM,75%
"TCACCTTTCATAATGT (sugars k3 d10 k3, PS)",target mRNA inhibition,1 µM,63%
"CCAGTACAGTTCCTTT (sugars k3 d9 k3 e1, PS)",target mRNA inhibition,0.02 µM,10%
same,target mRNA inhibition,0.078 µM,20%
same,target mRNA inhibition,0.313 µM,43%
same,target mRNA inhibition,1 µM,76%
same,target mRNA inhibition,1.25 µM,73%
same,target mRNA inhibition,5 µM,83%
"TCAAGTAATAAAGTCC (sugars k3 d10 k3, PS)",target mRNA inhibition,1 µM,49%
"ACTAATATTGAGGCAC (sugars kkdddddddddkekek, PS)",target mRNA inhibition,1 µM,27%
"AATTCTAAACTAGTGG (sugars k3 d10 k3, PS)",target mRNA inhibition,1 µM,31%
"GATTAGTCTTGATGTA (sugars k3 d1 m1 d8 k3, PS)",target mRNA inhibition,1 µM,45%
"TATATACTAGGATTAG (sugars k3 d10 k3, PS)",target mRNA inhibition,1 µM,10%
"ATAAGTAGTCTGCCTG (sugars k3 d10 k3, PS)",target mRNA inhibition,1 µM,43%
"TAAACATCTCTGGGAC (sugars k3 d1 m1 d8 k3, PS)",target mRNA inhibition,1 µM,49%
"TAGTAATCACAAGTAA (sugars k3 d10 k3, PS)",target mRNA inhibition,1 µM,30%
"AACAACCCAGCCTCGG (sugars k3 d10 k3, PS)",target mRNA inhibition,1 µM,20%
"GTTCTTGTTGATATTC (sugars kkdddddddddkekek, PS)",target mRNA inhibition,1 µM,66%
"ATACTTACCAATATGG (sugars k3 d10 k3, PS)",target mRNA inhibition,1 µM,0%
"AATACCCTTGGTGGAG (sugars k3 d10 k3, PS)",target mRNA inhibition,1 µM,16%
"AACTTCATAGTGGACT (sugars k3 d9 k3 e1, PS)",target mRNA inhibition,1 µM,70%
"TTATACTGAAGGCTGT (sugars k3 d10 k3, PS)",target mRNA inhibition,1 µM,23%
"GCCAGTACAGTTCCTT (sugars k3 d10 k3, PS)",target mRNA inhibition,1 µM,61%
"TCCGAAAAAAGTGGAG (sugars k3 d10 k3, PS)",target mRNA inhibition,1 µM,12%
"AAGTUAGCCCCCAGGA (sugars k3 d1 m1 d8 k3, PS)",target mRNA inhibition,1 µM,0%
"GTGCCAAACCAATGTT (sugars k3 d9 k3 e1, PS)",target mRNA inhibition,1 µM,56%
"ACCCATTCTAACTTGA (sugars k3 d10 k3, PS)",target mRNA inhibition,1 µM,0%
"ATATACATCCAAGTAA (sugars k3 d10 k3, PS)",target mRNA inhibition,1 µM,18%
"CTTGTGTAGTCCTAGG (sugars k3 d10 k3, PS)",target mRNA inhibition,0.02 µM,7%
same,target mRNA inhibition,0.078 µM,13%
same,target mRNA inhibition,0.313 µM,39%
same,target mRNA inhibition,1 µM,71%
same,target mRNA inhibition,1.25 µM,70%
same,target mRNA inhibition,5 µM,87%
"TGGTTCAGTCCTTGTG (sugars k3 d10 k3, PS)",target mRNA inhibition,1 µM,50%
"ATTCTAAACTAGTGGT (sugars k3 d10 k3, PS)",target mRNA inhibition,1 µM,39%
"CATAAAAATCGCTGCT (sugars k3 d10 k3, PS)",target mRNA inhibition,1 µM,45%
"CCCAGCATTATTCACC (sugars k3 d10 k3, PS)",target mRNA inhibition,1 µM,19%
"ACTTTTGGTGGACTTC (sugars k3 d10 k3, PS)",target mRNA inhibition,1 µM,0%
"CTGGAGGTATGTCATA (sugars k3 d10 k3, PS)",target mRNA inhibition,1 µM,23%
"TAAAGCAGGCTACTTT (sugars k3 d10 k3, PS)",target mRNA inhibition,1 µM,9%
"GCAATAGTACTATAGT (sugars k3 d10 k3, PS)",target mRNA inhibition,1 µM,39%
"TGGAAGATTAATCATA (sugars k3 d10 k3, PS)",target mRNA inhibition,1 µM,12%
"TGTGCACTCATTCTGT (sugars k3 d10 k3, PS)",target mRNA inhibition,1 µM,18%
"CCTATGAAAAACTACG (sugars k3 d10 k3, PS)",target mRNA inhibition,1 µM,36%
"TGACATAACTTCATAG (sugars k3 d10 k3, PS)",target mRNA inhibition,1 µM,51%
"CACTATCAGAACAGTT (sugars k3 d10 k3, PS)",target mRNA inhibition,1 µM,24%
"TGTGACGATGTGGCCA (sugars k3 d10 k3, PS)",target mRNA inhibition,1 µM,42%
"TGACTGCTGCTAGTGC (sugars k3 d10 k3, PS)",target mRNA inhibition,1 µM,50%
"CTAGGGAAATCTTTCA (sugars kkdddddddddkekek, PS)",target mRNA inhibition,1 µM,46%
"GAACCTATGTGTGCAC (sugars k3 d10 k3, PS)",target mRNA inhibition,1 µM,53%
"TCTAAACATCTCTGGG (sugars k3 d9 k3 e1, PS)",target mRNA inhibition,1 µM,42%
"TGTCCACCTTTAAATG (sugars k3 d10 k3, PS)",target mRNA inhibition,1 µM,29%
